Source: publication PMC3096752 (Clinical cancer research : an official journal of the …, 2011)

How the values were obtained:
[1] = tested on: patients with B cell malignancies (multiple myeloma, indolent and mantle cell lymphoma); assay: Phase I 3+3 dose escalation: DLT and MTD; format: in vivo, human
[2] = Alvocidib plasma pharmacokinetics; format: in vivo, human; conditions: mean ± SD
mantle cell lymphoma = conditions: bortezomib alone; cited from earlier work
refractory/relapsed MM = conditions: cited from earlier work
[3] = tested on: refractory/relapsed indolent NHL (including follicular, marginal zone and SLL); conditions: cited from earlier work
[4] = Dose Level 1 (n=8 doses): alvocidib 20+20 mg/m^2
[5] = Dose Level 2 (n=6 doses): alvocidib 30+30 mg/m^2
[6] = Dose Level 3 (n=3 doses): alvocidib 30+50 mg/m^2

Structure (SMILES) | MTD, alvocidib 4 hour infusion ([1]; days 1 and 8, 21 day cycle, after the 30 min bolus, in combination with bortezomib) [mg/m^2] | MTD, alvocidib 30 min bolus infusion ([1]; days 1 and 8, 21 day cycle, in combination with bortezomib) [mg/m^2] | CL [2, 4] | K10 [2, 4] [h⁻¹] | V1 [2, 4] | CL [2, 5] | K10 [2, 5] [h⁻¹] | V1 [2, 5] | CL [2, 6] | K10 [2, 6] [h⁻¹] | V1 [2, 6] | V2 [2, 6] | MTD, bortezomib ([1]; IV push days 1, 4, 8, 11, 21 day cycle, in combination with alvocidib) [mg/m^2] | single-agent activity (response rate) (mantle cell lymphoma) | responses to single-agent bortezomib (refractory/relapsed MM) | response rates to single agent bortezomib [3]
CN1CC[C@H](c2c(O)cc(O)c3c(=O)cc(-c4ccccc4Cl)oc23)[C@H](O)C1 [alvocidib] | 30 | 30 | 13,243 ± 2,540 ml/h/m^2 | 0.803 ± 0.237 | 18,512 ± 8,687 ml/m^2 | 12,825 ± 3,267 ml/h/m^2 | 1.04 ± 0.438 | 14,888 ± 7,685 ml/m^2 | 18,137 ± 8,097 ml/h/m^2 | 0.569 ± 0.169 | 31,380 ± 7,368 ml/m^2 | 48,448 ± 23,397 ml/m^2 |  |  |  | 
CC(C)C[C@H](NC(=O)[C@H](Cc1ccccc1)NC(=O)c1cnccn1)B(O)O [bortezomib] |  |  |  |  |  |  |  |  |  |  |  |  | 1.3 | approximately 33% | approximately 35% | approximately 13.3%
